Laboratory results from PubChem BioAssay AID2060912 (Molecular Pharmacology Branch, DTP, NCI, 2025).

System: HUVEC/MSC spheroids viability
Assay: Human HUVEC/MSC cell line growth inhibition [KRAS2];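 on viability, T/C: percent of DMSO vehicle control luminescence so 100% = untreated viability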
Conditions: for IC50: curve of first compound; for viability, T/C: stronger effect = lower value
Summary of the method: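 Growth/viability of tumour-free HUVEC–hMSC spheroids was measured after exposure to targeted small molecules and KRAS inhibitors, singly or in combination. Agents were diluted in half-log steps from Cmax-based top concentrations, capped at 10 microM without known Cmax.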

[1] = second compound 0.0316 µM, first compound 0.0316 µM
[2] = second compound 0.0316 µM, first compound 0.1 µM
[3] = second compound 0.0316 µM, first compound 0.316 µM
[4] = second compound 0.0316 µM, first compound 1 µM
[5] = second compound 0.1 µM, first compound 0.0316 µM
[6] = second compound 0.1 µM, first compound 0.1 µM
[7] = second compound 0.1 µM, first compound 0.316 µM
[8] = second compound 0.1 µM, first compound 1 µM
[9] = second compound 0.316 µM, first compound 0.0316 µM
[10] = second compound 0.316 µM, first compound 0.1 µM
[11] = second compound 0.316 µM, first compound 0.316 µM
[12] = second compound 0.316 µM, first compound 1 µM
[13] = second compound 1 µM, first compound 0.0316 µM
[14] = second compound 1 µM, first compound 0.1 µM
[15] = second compound 1 µM, first compound 0.316 µM
[16] = second compound 1 µM, first compound 1 µM
[17] = second compound 3.16 µM, first compound 0.0316 µM
[18] = second compound 3.16 µM, first compound 0.1 µM
[19] = second compound 3.16 µM, first compound 0.316 µM
[20] = second compound 3.16 µM, first compound 1 µM
[21] = second compound 10 µM, first compound 0.0316 µM
[22] = second compound 10 µM, first compound 0.1 µM
[23] = second compound 10 µM, first compound 0.316 µM
[24] = second compound 10 µM, first compound 1 µM

SMILES: CC(C)NCC(C(=O)N1CCN(c2ncnc3c2C(C)CC3O)CC1)c1ccc(Cl)cc1 (stereo unspecified) + C=CC(=O)N1CCN(c2nc(OCC3CCCN3C)nc3c2CCN(c2cccc4cccc(C)c24)C3)CC1CC#N
- IC50 (second compound 0.00949 µM): > 10 µM
- IC50 (second compound 0.03 µM): > 10 µM
- IC50 (second compound 0.0949 µM): > 10 µM
- IC50 (second compound 0.3 µM): 6.17 µM
- IC50 (second compound 0.949 µM): > 10 µM
- IC50 (second compound 3 µM): > 10 µM
- viability, T/C (second compound 0.00949 µM, first compound 0.0316 µM): 102%
- viability, T/C (second compound 0.00949 µM, first compound 0.1 µM): 92.3%
- viability, T/C (second compound 0.00949 µM, first compound 0.316 µM): 98.8%
- viability, T/C (second compound 0.00949 µM, first compound 1 µM): 66.7%
- viability, T/C (second compound 0.00949 µM, first compound 3.16 µM): 67.7%
- viability, T/C (second compound 0.00949 µM, first compound 10 µM): 57.2%
- viability, T/C (second compound 0.03 µM, first compound 0.0316 µM): 85.8%
- viability, T/C (second compound 0.03 µM, first compound 0.1 µM): 91.8%
- viability, T/C (second compound 0.03 µM, first compound 0.316 µM): 94.8%
- viability, T/C (second compound 0.03 µM, first compound 1 µM): 61.3%
- viability, T/C (second compound 0.03 µM, first compound 3.16 µM): 65.4%
- viability, T/C (second compound 0.03 µM, first compound 10 µM): 46.1%
- viability, T/C (second compound 0.0949 µM, first compound 0.0316 µM): 95.4%
- viability, T/C (second compound 0.0949 µM, first compound 0.1 µM): 97.5%
- viability, T/C (second compound 0.0949 µM, first compound 0.316 µM): 78.2%
- viability, T/C (second compound 0.0949 µM, first compound 1 µM): 79.8%
- viability, T/C (second compound 0.0949 µM, first compound 3.16 µM): 53.4%
- viability, T/C (second compound 0.0949 µM, first compound 10 µM): 57.4%
- viability, T/C (second compound 0.3 µM, first compound 0.0316 µM): 77.7%
- viability, T/C (second compound 0.3 µM, first compound 0.1 µM): 84.8%
- viability, T/C (second compound 0.3 µM, first compound 0.316 µM): 84%
- viability, T/C (second compound 0.3 µM, first compound 1 µM): 71.8%
- viability, T/C (second compound 0.3 µM, first compound 3.16 µM): 56.4%
- viability, T/C (second compound 0.3 µM, first compound 10 µM): 45.6%
- viability, T/C (second compound 0.949 µM, first compound 0.0316 µM): 67.4%
- viability, T/C (second compound 0.949 µM, first compound 0.1 µM): 82.2%
- viability, T/C (second compound 0.949 µM, first compound 0.316 µM): 68.6%
- viability, T/C (second compound 0.949 µM, first compound 1 µM): 58%
- viability, T/C (second compound 0.949 µM, first compound 3.16 µM): 57.8%
- viability, T/C (second compound 0.949 µM, first compound 10 µM): 56%
- viability, T/C (second compound 3 µM, first compound 0.0316 µM): 83.4%
- viability, T/C (second compound 3 µM, first compound 0.1 µM): 74.5%
- viability, T/C (second compound 3 µM, first compound 0.316 µM): 81.2%
- viability, T/C (second compound 3 µM, first compound 1 µM): 68.5%
- viability, T/C (second compound 3 µM, first compound 3.16 µM): 49.3%
- viability, T/C (second compound 3 µM, first compound 10 µM): 51.9%

SMILES: O=C(c1cc(Cc2n[nH]c(=O)c3ccccc23)ccc1F)N1CCN(C(=O)C2CC2)CC1 + COc1cc2nc(C)nc(NC(C)c3cc(N)cc(C(F)(F)F)c3)c2cc1OC1CCOC1
- IC50 (second compound 0.0316 µM): > 10 µM
- IC50 (second compound 0.1 µM): > 10 µM
- IC50 (second compound 0.316 µM): > 10 µM
- IC50 (second compound 1 µM): > 10 µM
- IC50 (second compound 3.16 µM): > 10 µM
- IC50 (second compound 10 µM): > 10 µM
- viability, T/C [1]: 104%
- viability, T/C [2]: 108%
- viability, T/C [3]: 102%
- viability, T/C [4]: 94.2%
- viability, T/C (second compound 0.0316 µM, first compound 3.16 µM): 89.7%
- viability, T/C (second compound 0.0316 µM, first compound 10 µM): 99.3%
- viability, T/C [5]: 108%
- viability, T/C [6]: 101%
- viability, T/C [7]: 90.5%
- viability, T/C [8]: 89.5%
- viability, T/C (second compound 0.1 µM, first compound 3.16 µM): 90.3%
- viability, T/C (second compound 0.1 µM, first compound 10 µM): 83.9%
- viability, T/C [9]: 93.8%
- viability, T/C [10]: 92.9%
- viability, T/C [11]: 101%
- viability, T/C [12]: 93.8%
- viability, T/C (second compound 0.316 µM, first compound 3.16 µM): 101%
- viability, T/C (second compound 0.316 µM, first compound 10 µM): 115%
- viability, T/C [13]: 86.5%
- viability, T/C [14]: 115%
- viability, T/C [15]: 93.8%
- viability, T/C [16]: 88.8%
- viability, T/C (second compound 1 µM, first compound 3.16 µM): 89.5%
- viability, T/C (second compound 1 µM, first compound 10 µM): 93.2%
- viability, T/C [17]: 75%
- viability, T/C [18]: 101%
- viability, T/C [19]: 93%
- viability, T/C [20]: 82.2%
- viability, T/C (second compound 3.16 µM, first compound 3.16 µM): 84.8%
- viability, T/C (second compound 3.16 µM, first compound 10 µM): 101%
- viability, T/C [21]: 72.3%
- viability, T/C [22]: 76.5%
- viability, T/C [23]: 79.4%
- viability, T/C [24]: 68.2%
- viability, T/C (second compound 10 µM, first compound 3.16 µM): 77.2%
- viability, T/C (second compound 10 µM, first compound 10 µM): 63.2%

SMILES: CCN1CCN(Cc2ccc(Nc3ncc(F)c(-c4cc(F)c5nc(C)n(C(C)C)c5c4)n3)nc2)CC1 + CC1OCC2(CCN(c3cnc(Sc4ccnc(N)c4Cl)c(N)n3)CC2)C1N
- IC50 (second compound 0.0316 µM): > 1 µM
- IC50 (second compound 0.1 µM): > 1 µM
- IC50 (second compound 0.316 µM): > 1 µM
- IC50 (second compound 1 µM): > 1 µM
- IC50 (second compound 3.16 µM): > 1 µM
- IC50 (second compound 10 µM): > 1 µM
- viability, T/C (second compound 0.0316 µM, first compound 0.00316 µM): 105%
- viability, T/C (second compound 0.0316 µM, first compound 0.01 µM): 105%
- viability, T/C [1]: 95.6%
- viability, T/C [2]: 111%
- viability, T/C [3]: 124%
- viability, T/C [4]: 121%
- viability, T/C (second compound 0.1 µM, first compound 0.00316 µM): 111%
- viability, T/C (second compound 0.1 µM, first compound 0.01 µM): 105%
- viability, T/C [5]: 117%
- viability, T/C [6]: 93.4%
- viability, T/C [7]: 123%
- viability, T/C [8]: 114%
- viability, T/C (second compound 0.316 µM, first compound 0.00316 µM): 108%
- viability, T/C (second compound 0.316 µM, first compound 0.01 µM): 108%
- viability, T/C [9]: 102%
- viability, T/C [10]: 96.9%
- viability, T/C [11]: 117%
- viability, T/C [12]: 114%
- viability, T/C (second compound 1 µM, first compound 0.00316 µM): 94.3%
- viability, T/C (second compound 1 µM, first compound 0.01 µM): 95.9%
- viability, T/C [13]: 85.6%
- viability, T/C [14]: 96%
- viability, T/C [15]: 102%
- viability, T/C [16]: 114%
- viability, T/C (second compound 3.16 µM, first compound 0.00316 µM): 81.1%
- viability, T/C (second compound 3.16 µM, first compound 0.01 µM): 84.8%
- viability, T/C [17]: 88.2%
- viability, T/C [18]: 80%
- viability, T/C [19]: 96.2%
- viability, T/C [20]: 87.2%
- viability, T/C (second compound 10 µM, first compound 0.00316 µM): 74.8%
- viability, T/C (second compound 10 µM, first compound 0.01 µM): 66%
- viability, T/C [21]: 67.2%
- viability, T/C [22]: 62.3%
- viability, T/C [23]: 84.1%
- viability, T/C [24]: 91.2%
